Measured values as given in US3954985A, “Method for inhibiting bacterial growth with certain selected 3-chloro-tetrahydro-1,3-oxazines or oxazolidines” (INTERx Research Corporation, priority 1975, dated 1976).
Several values for one entry are separate records, joined by “and”; a condition that tells them apart may be missing. Equal entries are not always repeated.

Experiments:
[1] = tested on: Staph. epidermidis ATCC 12228; test: Bactericidal endpoint (time for complete sterilization), ATCC 12228; assay type: cell-based
From the text: (§1) The procedure employed to determine the antibacterial activity of 3-chloro-2,2,4,4-tetramethyl-tetrahydro1,3-oxazolidine and 3-chloro-2,2-[spiro-1'-methyl-4'-piperidinyl]-4,4-dimethyl-1,3-oxazolidinewas based primarily on a modification of the serial dilution method of analysis. However, instead of determining the minimum inhibitory concentration parameters for the compound investigated, applicants alternatively chose to determine the bactericidal endpoint for a given concentration of the compound investigated. Consequently, applicants' studies were established to determine the time required for complete sterilization of the micro-organism tested, when exposed to a given concentration of the compound investigated.
(§2) A stock solution of each compound identified above was prepared using an appropriate buffered solution.
(§3) For screening in the absence of a denaturing agent (e.g., horse serum) an equal volume of distilled water and the resulting solution was subjected to the screen.
(§4) For screening in the presence of a denaturing agent, a volume of the stock solution was diluted using an equal volume of 10% horse serum. When necessary, the final solution was adjusted to the desired pH using 1N HCl and the solution was permitted to stand at room temperature for thirty minutes prior to the screening procedure.
(§5) To 5 ml of the stock solution being evaluated, there was added 0.2 ml of an overnight broth culture containing the particular micro-organism being investigated (see above). At time intervals of 0.5, 1, 2, 3, 4, 5, . . . minutes, a loop of this suspension was subcultured into 5 ml of a sterile nutrient broth. All the samples were then incubated at 37°C for seven days with daily observation for evidence of bacterial growth. The time interval reported is for that sample in which no bacterial growth was observed after the incubation period.

[2] = tested on: E. coli ATCC 10536; test: Bactericidal endpoint (time for complete sterilization), ATCC 10536; assay type: cell-based
From the text: as §1, §2, §3, §4, §5

[3] = tested on: Kleb. pneumoniae ATCC 10031; test: Bactericidal endpoint (time for complete sterilization), ATCC 10031; assay type: cell-based
From the text: as §1, §2, §3, §4, §5

[4] = tested on: Pseud. aeruginosa ATCC 9027; test: Bactericidal endpoint (time for complete sterilization), ATCC 9027; assay type: cell-based
From the text: as §1, §2, §3, §4, §5

[5] = tested on: Staph. aureus ATCC 6538; test: Bactericidal endpoint (time for complete sterilization), ATCC 6538; assay type: cell-based
From the text: as §1, §2, §3, §4, §5

[6] = tested on: Bord. bronchiseptica ATCC 4617; test: Bactericidal endpoint (time for complete sterilization), ATCC 4617; assay type: cell-based
From the text: as §1, §2, §3, §4, §5

[7] = tested on: 6501; test: Bactericidal endpoint (time for complete sterilization), 6501; assay type: cell-based
From the text: as §1, §2, §3, §4, §5

[8] = Stability in the neat state at 40°C (positive chlorine by thiosulfate titration); assay type: physicochemical
From the text: ^a Weight of sample analyzed.
^b Volume of 10^^-2 N sodium thiosulfate required to titrate
the sample at time (T).
^c Percentage of positive chlorine in the sample analyzed.

[9] = 0.5 M NaH2PO4 pH 7.0, diluent not given, 19.13 × 10^-3 M (6026 ppm)
[10] = 0.5 M NaH2PO4 pH 710 (so in the source), H2O, 19.75 × 10^-3 M (6221 ppm)
[11] = 0.5 M NaOAc pH 4.6, H2O, 17.0 × 10^-3 (5355 ppm)
[12] = 0.5 M NaOAc pH 4.6, Serum, 17.0 × 10^-3 (5355 ppm)

In the case of CN1CCC2(CC1)OCC(C)(C)N2Cl, the “Antibacterial activity, time, 12228” value [1, 9] is reported as greater than 10 min, the “Antibacterial activity, time, 12228” value [1, 10] is reported as 4 min and the “Antibacterial activity, time, 12228” value [1, 11] is reported as 0.5 min. For the same molecule, the “Antibacterial activity, time, 12228” value [1, 12] was 2 min, the “Antibacterial activity, time, 10536” value [2, 9] was 4 min and the “Antibacterial activity, time, 10536” value [2, 10] was 1 min. The “Antibacterial activity, time, 10536” value [2, 11] was 0.5 min, the “Antibacterial activity, time, 10536” value [2, 12] was 0.5 min and the “Antibacterial activity, time, 10031” value [3, 9] was greater than 10 min. For the same molecule, the “Antibacterial activity, time, 10031” value [3, 10] was 1 min, the “Antibacterial activity, time, 10031” value [3, 11] was 0.5 min and the “Antibacterial activity, time, 10031” value [3, 12] was 1 min. The “Antibacterial activity, time, 9027” value [4, 9] was greater than 10 min, the “Antibacterial activity, time, 9027” value [4, 10] was 1 min and the “Antibacterial activity, time, 9027” value [4, 11] was 0.5 min. The “Antibacterial activity, time, 9027” value [4, 12] was 1 min, the “Antibacterial activity, time, 6538” value [5, 9] was greater than 10 min and the “Antibacterial activity, time, 6538” value [5, 10] was 4 min. For the same molecule, the “Antibacterial activity, time, 6538” value [5, 11] was 1 min, the “Antibacterial activity, time, 6538” value [5, 12] was 6 min and the “Antibacterial activity, time, 4617” value [6, 9] was greater than 10 min. The “Antibacterial activity, time, 4617” value [6, 10] was 1 min, the “Antibacterial activity, time, 4617” value [6, 11] was 0.5 min and the “Antibacterial activity, time, 4617” value [6, 12] was 1 min. The “Antibacterial activity, time, 6501” value [7, 9] was greater than 10 min, the “Antibacterial activity, time, 6501” value [7, 10] was 1 min and the “Antibacterial activity, time, 6501” value [7, 11] was 0.5 min. The “Antibacterial activity, time, 6501” value [7, 12] was 1 min, the “%Cl (percentage of positive chlorine in the sample analyzed)” value ([8]; 0 days) was 10.6% and the “%Cl (percentage of positive chlorine in the sample analyzed)” value ([8]; 1 day) was 10.2% and 10.3%. The “%Cl (percentage of positive chlorine in the sample analyzed)” value ([8]; 2 days) was 10.3% and 9.8%, the “%Cl (percentage of positive chlorine in the sample analyzed)” value ([8]; 3 days) was 9.8% and 10.0% and the “%Cl (percentage of positive chlorine in the sample analyzed)” value ([8]; 4 days) was 9.4%. The “%Cl (percentage of positive chlorine in the sample analyzed)” value ([8]; 5 days) was 9.7%, the “%Cl (percentage of positive chlorine in the sample analyzed)” value ([8]; 7 days) was 9.3% and 9.7% and the “%Cl (percentage of positive chlorine in the sample analyzed)” value ([8]; 10 days) was 9.8%. The “%Cl (percentage of positive chlorine in the sample analyzed)” value ([8]; 14 days) was 8.8% and 9.0%, the “%Cl (percentage of positive chlorine in the sample analyzed)” value ([8]; 21 days) was 9.4% and the “%Cl (percentage of positive chlorine in the sample analyzed)” value ([8]; 28 days) was 9.4% and 9.1%. For the same molecule, the “%Cl (percentage of positive chlorine in the sample analyzed)” value ([8]; 35 days) was 8.9% and 9.0% and the “%Cl (percentage of positive chlorine in the sample analyzed)” value ([8]; 51 days) was 8.0%.
